Data: US7790895B2, “Quinoline derivatives as potassium ion channel openers” (Janssen Pharmaceutica NV, priority 2005, dated 2010)

Molecular target: T1, KATP channels (Homo sapiens, UniProt O60706)
T1 construct: TE671 human medulloblastoma cells were obtained from ATCC; host or cells: TE671 human medulloblastoma cells
Experiment: Potassium Channel Assay (FLIPR membrane potential, KATP channel opening)
Type: cell-based
Settings: TE671 human medulloblastoma cells, Membrane Potential Assay Dye, room temperature; for % Stimulation: test concentration not given
Experimental: TE671 human medulloblastoma cells were obtained from ATCC and grown in Dulbecco's modified Eagle's medium (DMEM) supplemented with 10% fetal bovine serum, 100 U/ml penicillin and 100 U/ml streptomycine.
The day before testing, the cells were plated in black 96-well plates at 50K/well. On the day of testing, the growth media was removed, then 100 μl of FLIPR buffer (20 mM HEPES, 120 mM NaCl, 2 mM KCl, 2 mM CaCl2, 1 mM MgCl2, 5 mM Glucose) and 100 μl of Membrane Potential Assay Dye (Molecular Devices) dissolved in FLIPR buffer were added to each well. The cells were incubated at room temperature for 15 to 30 min.
The effect of test compounds on KATP channels were evaluated on a fluorometric imaging plate reader (FLIPR, Molecular Devices) at room temperature. After a baseline period, 50 μl of 5× stock solution of test compound prepared in FLIPR buffer was added and fluorescence change was monitored for 3 minutes. After this reading, glyburide, a KATP channel blocker, was added to a final concentration of 5 μM to check the specificity of the test compound as a KATP channel opener. Hyperpolarization resulting from KATP channel opening was observed as a decrease in fluorescence intensity.

T1 sequence (O60706 1-1549 isoform O60706-2): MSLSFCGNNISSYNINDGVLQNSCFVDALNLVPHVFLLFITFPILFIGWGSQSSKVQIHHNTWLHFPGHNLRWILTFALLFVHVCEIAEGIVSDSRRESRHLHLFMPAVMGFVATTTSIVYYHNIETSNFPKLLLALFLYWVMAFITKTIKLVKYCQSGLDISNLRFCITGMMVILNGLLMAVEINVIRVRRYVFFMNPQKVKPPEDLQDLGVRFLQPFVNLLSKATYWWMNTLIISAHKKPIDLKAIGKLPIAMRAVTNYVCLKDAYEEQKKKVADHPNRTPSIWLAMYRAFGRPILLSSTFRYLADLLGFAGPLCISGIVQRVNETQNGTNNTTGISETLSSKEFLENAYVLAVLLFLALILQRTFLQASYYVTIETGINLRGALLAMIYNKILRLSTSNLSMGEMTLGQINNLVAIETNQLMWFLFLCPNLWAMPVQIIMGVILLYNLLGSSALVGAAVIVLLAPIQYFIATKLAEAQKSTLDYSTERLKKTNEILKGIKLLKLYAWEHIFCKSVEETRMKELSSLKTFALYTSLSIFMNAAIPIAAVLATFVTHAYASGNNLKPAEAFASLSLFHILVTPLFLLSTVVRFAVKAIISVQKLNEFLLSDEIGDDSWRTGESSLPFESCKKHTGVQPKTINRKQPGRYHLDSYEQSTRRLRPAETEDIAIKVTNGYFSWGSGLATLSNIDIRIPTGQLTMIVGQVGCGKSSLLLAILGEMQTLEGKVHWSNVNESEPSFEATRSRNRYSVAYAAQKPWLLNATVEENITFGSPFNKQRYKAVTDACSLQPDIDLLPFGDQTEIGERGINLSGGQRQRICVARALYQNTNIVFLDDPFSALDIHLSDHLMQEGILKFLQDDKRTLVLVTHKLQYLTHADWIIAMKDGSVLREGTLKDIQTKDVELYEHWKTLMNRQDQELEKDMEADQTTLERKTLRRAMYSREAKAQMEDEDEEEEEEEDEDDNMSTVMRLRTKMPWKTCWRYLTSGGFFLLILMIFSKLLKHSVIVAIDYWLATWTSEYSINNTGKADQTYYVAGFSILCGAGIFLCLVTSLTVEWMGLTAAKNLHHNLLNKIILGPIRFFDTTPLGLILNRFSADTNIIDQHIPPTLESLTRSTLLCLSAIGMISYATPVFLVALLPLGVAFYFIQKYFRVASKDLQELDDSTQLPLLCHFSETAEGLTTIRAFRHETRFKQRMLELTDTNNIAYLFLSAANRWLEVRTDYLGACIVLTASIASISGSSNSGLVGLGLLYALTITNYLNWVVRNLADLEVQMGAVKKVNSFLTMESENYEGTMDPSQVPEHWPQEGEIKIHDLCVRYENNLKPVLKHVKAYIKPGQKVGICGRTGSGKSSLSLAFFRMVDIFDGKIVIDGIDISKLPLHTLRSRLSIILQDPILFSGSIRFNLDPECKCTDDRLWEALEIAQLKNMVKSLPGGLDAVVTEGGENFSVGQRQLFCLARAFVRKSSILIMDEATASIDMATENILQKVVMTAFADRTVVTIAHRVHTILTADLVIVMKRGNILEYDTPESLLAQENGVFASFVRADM
T1 sequence (Q14654 whole entry partner): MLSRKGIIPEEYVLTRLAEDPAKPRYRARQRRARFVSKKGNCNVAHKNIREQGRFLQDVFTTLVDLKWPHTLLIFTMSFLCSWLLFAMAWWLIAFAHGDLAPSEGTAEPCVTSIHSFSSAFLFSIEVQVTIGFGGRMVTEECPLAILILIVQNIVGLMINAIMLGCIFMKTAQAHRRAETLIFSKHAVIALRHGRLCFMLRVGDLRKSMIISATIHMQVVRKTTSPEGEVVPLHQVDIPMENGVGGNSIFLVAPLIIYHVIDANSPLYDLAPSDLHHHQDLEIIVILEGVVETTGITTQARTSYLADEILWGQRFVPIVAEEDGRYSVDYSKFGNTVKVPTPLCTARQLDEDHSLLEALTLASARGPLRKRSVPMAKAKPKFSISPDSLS

Row | SMILES | EC50 [µM] | % Stimulation [%]
1 | CCOC(=O)c1cnc2cc(C(F)(F)F)ccc2c1-c1cccc(C#N)c1 [Compound 1, 4-(3-Cyano-phenyl)-7-trifluoromethyl-quinoline-3-carboxylic acid ethyl ester] | > 30 | 
2 | CCOC(=O)c1cnc2cc(C(F)(F)F)ccc2c1-c1cc(C)cc(OC)c1 [Compound 2, 4-(3-Methoxy-5-methyl-phenyl)-7-trifluoromethyl-quinoline-3-carboxylic acid ethyl ester] | > 30 | 
3 | CCOC(=O)c1cnc2cc(C(F)(F)F)ccc2c1-c1cc(C(F)(F)F)cc(C(F)(F)F)c1 [Compound 3, 4-(3,5-Bis-trifluoromethyl-phenyl)-7-trifluoromethyl-quinoline-3-carboxylic acid-ethyl ester] | > 30 | 
4 | CCOC(=O)c1ccc(-c2c(C(=O)OCC)cnc3cc(C(F)(F)F)ccc23)cc1 [Compound 4, 4-(4-Ethoxycarbonyl-phenyl)-7-trifluoromethyl-quinoline-3-carboxylic acid ethyl ester] | > 30 | 
5 | CCOC(=O)c1cnc2cc(C(F)(F)F)ccc2c1-c1ccc(-c2ccccc2)cc1 [Compound 5, 4-Biphenyl-4-yl-7-trifluoromethyl-quinoline-3-carboxylic acid ethyl ester] | > 30 | 
6 | CCOC(=O)c1cnc2cc(C(F)(F)F)ccc2c1-c1ccccc1 [Compound 6, 4-Phenyl-7-trifluoromethyl-quinoline-3-carboxylic acid ethyl ester] | > 30 | 
7 | CCOC(=O)c1cnc2cc(C(F)(F)F)ccc2c1-c1cccc(C(C)=O)c1 [Compound 7, 4-(3-Acetyl-phenyl)-7-trifluoromethyl-quinoline-3-carboxylic acid ethyl ester] | > 30 | 2
8 | CCOC(=O)c1cnc2cc(C(F)(F)F)ccc2c1-c1cc(C(F)(F)F)ccc1F [Compound 8, 4-(2-Fluoro-5-trifluoromethyl-phenyl)-7-trifluoromethyl-quinoline-3-carboxylic acid ethyl ester] | > 30 | 
9 | CCOC(=O)c1cnc2cc(C(F)(F)F)ccc2c1-c1cc(C=O)ccc1OC [Compound 9, 4-(5-Formyl-2-methoxy-phenyl)-7-trifluoromethyl-quinoline-3-carboxylic acid ethyl ester] | 7.73 | 
10 | CCOC(=O)c1cnc2cc(C(F)(F)F)ccc2c1-c1cccc(C(F)(F)F)c1 [Compound 10, 7-Trifluoromethyl-4-(3-trifluoromethyl-phenyl)-quinoline-3-carboxylic acid ethyl ester] | > 30 | 
11 | CCOC(=O)c1cnc2cc(C(F)(F)F)ccc2c1-c1cccc(C=O)c1 [Compound 11, 4-(3-Formyl-phenyl)-7-trifluoromethyl-quinoline-3-carboxylic acid ethyl ester] | > 30 | 2
12 | CCOC(=O)c1cnc2cc(C(F)(F)F)ccc2c1-c1cccc(CO)c1 [Compound 12, 4-(3-Hydroxymethyl-phenyl)-7-trifluoromethyl-quinoline-3-carboxylic acid ethyl ester] | > 30 | 20
13 | CCOC(=O)c1cnc2cc(C(F)(F)F)ccc2c1-c1ccc(C)c(C)c1 [Compound 13, 4-(3,4-Dimethyl-phenyl)-7-trifluoromethyl-quinoline-3-carboxylic acid ethyl ester] | > 30 | 0
14 | CCOC(=O)c1cnc2cc(C(F)(F)F)ccc2c1-c1cc(CO)ccc1OC [Compound 14, 4-(5-Hydroxymethyl-2-methoxy-phenyl)-7-trifluoromethyl-quinoline-3-carboxylic acid ethyl ester] | 4.56 | 
15 | CCOC(=O)c1cnc2cc(C(F)(F)F)ccc2c1OS(=O)(=O)C(F)(F)F [Compound 15, 4-Trifluoromethanesulfonyloxy-7-trifluoromethyl-quinoline-3-carboxylic acid ethyl ester] | 6.27 | 
16 | N#Cc1cccc(-c2ccncc2C(O)c2ccccc2)c1 (stereo not shown) [Compound 19, 3-[3-(Hydroxy-phenyl-methyl)-pyridin-4-yl]-benzonitrile] | 9.63 | 
17 | N#Cc1cccc(-c2ccncc2C(O)c2ccc(F)cc2)c1 (stereo not shown) [Compound 20, 3-{3-[(4-Fluoro-phenyl)-hydroxy-methyl]-pyridin-4-yl}-benzonitrile] | 19.4 | 
18 | N#Cc1cccc(-c2ccncc2C(O)c2cccc(F)c2)c1 (stereo not shown) [Compound 21, 3-{3-[(3-Fluoro-phenyl)-hydroxy-methyl]-pyridin-4-yl}-benzonitrile] | 23.2 | 
19 | Cc1ccc(C(O)c2cnccc2-c2cccc(C#N)c2)cc1F (stereo not shown) [Compound 22, 3-{3-[(3-Fluoro-4-methyl-phenyl)-hydroxy-methyl]-pyridin-4-yl}-benzonitrile] | 15.1 | 
20 | N#Cc1cccc(-c2ccncc2C(O)c2ccc(F)c(F)c2)c1 (stereo not shown) [Compound 23, 3-{3-[(3,4-Difluoro-phenyl)-hydroxy-methyl]-pyridin-4-yl}-benzonitrile] | 11.4 | 
21 | N#Cc1cccc(-c2ccncc2C(O)c2ccc(Cl)c(Cl)c2)c1 (stereo not shown) [Compound 24, 3-{3-[(3,4-Dichloro-phenyl)-hydroxy-methyl]-pyridin-4-yl}-benzonitrile] | 14.5 | 

Row | SMILES | EC50 [µM] | % Stimulation [%]
22 | N#Cc1cccc(-c2ccncc2C(O)c2cc(Cl)cc(Cl)c2)c1 (stereo not shown) [Compound 25, 3-{3-[(3,5-Dichloro-phenyl)-hydroxy-methyl]-pyridin-4-yl}-benzonitrile] | 9.82 | 
23 | N#Cc1cccc(-c2ccncc2C(O)c2ccc(Cl)cc2)c1 (stereo not shown) [Compound 26, 3-{3-[(4-Chloro-phenyl)-hydroxy-methyl]-pyridin-4-yl}-benzonitrile] | 10.2 | 
24 | CC(C)(C)c1ccc(C(O)c2cnccc2-c2cccc(C#N)c2)cc1 (stereo not shown) [Compound 27, 3-{3-[(4-tert-Butyl-phenyl)-hydroxy-methyl]-pyridin-4-yl}-benzonitrile] | 10.7 | 
25 | COc1ccccc1C(O)c1cnccc1-c1cccc(C#N)c1 (stereo not shown) [Compound 28, 3-{3-[Hydroxy-(2-methoxy-phenyl)-methyl]-pyridin-4-yl}-benzonitrile] | 10.2 | 
26 | COc1cccc(C(O)c2cnccc2-c2cccc(C#N)c2)c1 (stereo not shown) [Compound 29, 3-{3-[Hydroxy-(3-methoxy-phenyl)-methyl]-pyridin-4-yl}-benzonitrile] | 13.7 | 
27 | COc1ccc(C(O)c2cnccc2-c2cccc(C#N)c2)cc1 (stereo not shown) [Compound 30, 3-{3-[Hydroxy-(4-methoxy-phenyl)-methyl]-pyridin-4-yl}-benzonitrile] | > 30 | 7
28 | Cc1ccccc1C(O)c1cnccc1-c1cccc(C#N)c1 (stereo not shown) [Compound 31, 3-{3-[Hydroxy-(2-methyl-phenyl)-methyl]-pyridin-4-yl}-benzonitrile] | 15 | 
29 | Cc1ccc(C(O)c2cnccc2-c2cccc(C#N)c2)cc1 (stereo not shown) [Compound 32, 3-{3-[Hydroxy-(4-methyl-phenyl)-methyl]-pyridin-4-yl}-benzonitrile] | 8.48 | 
30 | CSc1ccc(C(O)c2cnccc2-c2cccc(C#N)c2)cc1 (stereo not shown) [Compound 34, 3-{3-[Hydroxy-(4-methylsulfanyl-phenyl)-methyl]-pyridin-4-yl}-benzonitrile] | 20.8 | 
31 | Cc1cc(C)c(C(O)c2cnccc2-c2cccc(C#N)c2)c(C)c1 (stereo not shown) [Compound 35, 3-{3-[Hydroxy-(2,4,6-trimethyl-phenyl)-methyl]-pyridin-4-yl}-benzonitrile] | > 30 | 
32 | COc1ccc(F)cc1C(O)c1cnccc1-c1cccc(C#N)c1 (stereo not shown) [Compound 36, 3-{3-[(5-Fluoro-2-methoxy-phenyl)-hydroxy-methyl]-pyridin-4-yl}-benzonitrile] | > 30 | 
33 | COc1ccc(C(O)c2cnccc2-c2cccc(C#N)c2)cc1F (stereo not shown) [Compound 37, 3-{3-[(3-Fluoro-4-methoxy-phenyl)-hydroxy-methyl]-pyridin-4-yl}-benzonitrile] | 9.59 | 
34 | Cc1ccc(F)cc1C(O)c1cnccc1-c1cccc(C#N)c1 (stereo not shown) [Compound 38, 3-{3-[(5-Fluoro-2-methyl-phenyl)-hydroxy-methyl]-pyridin-4-yl}-benzonitrile] | > 30 | 
35 | N#Cc1cccc(-c2ccncc2C(O)C(F)(F)F)c1 (stereo not shown) [Compound 39, 3-[3-(2,2,2-Trifluoro-1-hydroxy-ethyl)-pyridin-4-yl]-benzonitrile] | 10.5 | 
36 | O=C(c1ccccc1)c1ccncc1C(O)c1ccccc1 (stereo not shown) [Compound 43, [3-(Hydroxy-phenyl-methyl)-pyridin-4-yl]-phenyl-methanone] | 17.4 | 
37 | CN(C)c1ccc(C(O)c2cnccc2C(=O)c2ccccc2)cc1 (stereo not shown) [Compound 44, {3-[(4-Dimethylamino-phenyl)-hydroxy-methyl]-pyridin-4-yl}-phenyl-methanone] | 17.4 | 
38 | COc1ccc(C(O)c2cnccc2C(=O)c2ccccc2)cc1F (stereo not shown) [Compound 45, {3-[(3-Fluoro-4-methoxy-phenyl)-hydroxy-methyl]-pyridin-4-yl}-phenyl-methanone] | 11.6 | 
39 | COc1ccc(OC)c(C(O)c2cnccc2C(=O)c2ccccc2)c1 (stereo not shown) [Compound 46, {3-[(2,5-Dimethoxy-phenyl)-hydroxy-methyl]-pyridin-4-yl}-phenyl-methanone] | 12.1 | 
40 | O=C(c1ccccc1)c1ccncc1C(O)c1cccc(F)c1 (stereo not shown) [Compound 47, {3-[(3-Fluoro-phenyl)-hydroxy-methyl]-pyridin-4-yl}-phenyl-methanone] | 5.09 | 
41 | N#Cc1cccc(C(=O)c2ccncc2C(O)c2ccccc2)c1 (stereo not shown) [Compound 48, 3-[3-(Hydroxy-phenyl-methyl)-pyridine-4-carbonyl]-benzonitrile] | 14.3 | 
